How the values were obtained:
[1] = tested on: library of 512 hairpin deoxyoligonucleotides containing all possible five bp sequences; test: Fluorescent intercalator displacement (ethidium bromide) assay, 96-well, 512-member hairpin library; type: binding; details: for 3 or 2 bp AT sites, statistical site frequency in the top 50 sequences: FIG. 24; for five bp AT sites found in the top 50 sequences: share of the 16 five bp AT sites; for four bp AT sites found in the top 50 sequences: share of the 32 four bp AT sites; for three bp AT sites found in the top 50 sequences: share of the 80 three bp AT sites
Procedure: Ethidium Bromide Assay. […] Prior to use, each deoxyoligonucleotide was diluted to […] in water and stored at 0° C. for no longer than two days. Each well of a Costar black 96-well plate was loaded with Tris buffer containing ethidium bromide (88 μL of a 0.68×10^−5 solution in buffer (0.1 M Tris, 0.1 M NaCl, pH 8), 0.60×10^−5 M ethidium bromide final concentration). To each well was added one hairpin deoxyoligonucleotide (10 μL, 1.2×10^−5 M in DNA bp final concentration) followed by agent (2 μL of a 0.1 mM solution in water, 2.0×10^−6 M final concentration). […] Fluorescence readings are reported as % fluorescence relative to the control wells. Fluorescence plate readers show a variability of ±10%, but surface effects (i.e bubbles, dust) may contribute to larger variations requiring a second set of measurements.
All other experiments described herein (i.e. compound concentration, overall assay concentration, ethidium bromide:DNA ratio, time variability, etc.) utilized this general procedure in a 96-well plate format.

[2] = tested on: hairpin deoxyoligonucleotides (AATTT, AAAAA, AATAA, ATTAA); test: Ethidium bromide displacement quantitative titration, Scatchard analysis; type: binding; details: for binding constant for the hairpin containing AAAAA: ethidium bromide displacement titration
Procedure: Determination of Binding Constants. Ethidium Bromide/Thiazole Orange Displacement. A 3 mL quartz cuvette was loaded with Tris buffer (0.1 M Tris, 0.1 M, NaCl, pH 8) and ethidium bromide orthiazole orange (0.44×10^−5 M final concentration). […] The hairpin deoxyoligonucleotide of interest was added (1.1 μM, 8.8 μM in bp final concentration), the fluorescence was measured again and normalized to 100% relative fluorescence. A solution of compound (2 μL, 0.1 mM in DMSO) was added and the fluorescence was measured following 5 min of incubation at 23° C. The addition of 2 μL aliquots was continued until the system reached saturation and the fluorescence remained constant with subsequent compound additions.
(§1) Scatchard Analysis of the Titration Curve. The AF was plotted versus molar equivalents of agent and the ΔFsat was determined mathematically by solving the simultaneous equations representing the pre and post saturation regions of the titration curve. Utilizing equations (1)-(3) (FIG. 11), a Scatchard plot was generated where ΔF/[Free Agent] was plotted versus ΔF. The slope of the region immediately preceding complete saturation of the system provided −K.

GC-rich regions = details: fold weaker; cited from earlier work
[3] = tested on: 136-membered hairpin library containing all possible four bp sites; test: Thiazole orange displacement 96-well assay, 136-membered hairpin library; type: binding; details: 136 hairpins
Procedure: A preliminary examination of thiazole orange was conducted to assess the optimal assay concentration range, and to establish its affinity and stoichiometry of binding with representative hairpins (FIG. 10). Thiazole was utilized in both the 96-well format assay and in quantitative titrations for determining binding constants (FIGS. 27 and 28). […] A representative example of the use of thiazole orange in the 96-well format assay is illustrated in FIG. 28 with the assay of netropsin against a 136-membered hairpin library containing all possible four bp sites. […] The mean rank of the ten available 4 bp AT sites was 7.3, whereas the mean positions for the 3 and 2 bp sites were 41.6 and 67.7, respectively. Moreover, the rank order binding across the full ensemble of 4 bp AT sites is consistent with that established in footprinting studies (Portugal, J.; Waring, M. J. Eur. J. Biochem. 1987, 167, 281; Portugal, J.; Waring, M. J. FEBS Lett. 1987, 225, 195; Abu-Daya, A.; et al. Nucleic Acids Res. 1995, 23, 3385; Abu-Daya, A.; Fox, K. R. Nucleic Acids Res. 1997, 25, 4962; Harshman, K. D.; Dervan, P. B. Nucleic Acids Res. 1985, 13, 4825; Van Dyke, M. W.; et al. Proc. Natl. Acad. Sci. USA 1982, 79, 5470; Ward, B.; et al. Biochemistry 1988, 27, 1198; Fish, E. L.; et al. Biochemistry 1988, 27, 6026; Kittler, L.; et al. J. Mol. Recognit. 1999, 12, 121).

[4] = tested on: hairpin deoxyoligonucleotide; test: Direct fluorescence titration of DAPI, Hoechst 33258, ethidium bromide or thiazole orange; type: binding; details: FIG. 10, second table
Procedure: Direct Fluorescence Titration of DAPI, Hoechst 33258, Ethidium Bromide or Thiazole Orange. A 3 mL quartz cuvette was loaded with Tris buffer (0.1 M Tris, 0.1 M, NaCl, pH 8) and hairpin deoxyoligonucleotide (1.1 μM, 8.8 μM in bp final concentration). A solution of DAPI (excitation 372 nm; emission 454 nm; 2 μL, 0.1 mM in DMSO), Hoechst 33258 (excitation 358 nm; emission 454 nm; 2 μL, 0.1 mM in DMSO), ethidium bromide (excitation 545 nm; emission 595 nm; 2 μL, 0.5 mM in H2O) or thiazole orange (excitation 509 nm; emission 527 nm; 2 μL, 0.5 mM in DMSO) was added and the fluorescence was measured following 5 min of incubation at 23° C. The addition of 2 μL aliquots was continued until the system reached saturation and the fluorescence remained constant with subsequent additions.
as §1

polynucleotides = test: Binding constants of ethidium bromide and thiazole orange to polynucleotides (FIG. 10, first table)
Source text: FIG. 10 is a table showing the binding constants of ethidium bromide and thiazole orange. […] The variation in the DNA used in the first table is much greater than that used in the second table which explains the greater variation in the ethidium bromide constants.

Compound	sites containing a GC bp central to a five bp AT-rich site in the top 50 sequences ([1]; 512 hairpins)	3 or 2 bp AT sites, statistical site frequency in the top 50 sequences ([1]; 512 hairpins)	five bp AT sites found in the top 50 sequences ([1]; 512 hairpins)	four bp AT sites found in the top 50 sequences ([1]; 512 hairpins)	three bp AT sites found in the top 50 sequences ([1]; 512 hairpins)	binding constant for the hairpin containing AAAAA ([2]; hairpin containing 5′-AAAAA)	also measured
Cl.Cl.N=C(N)c1ccc(-c2cc3ccc(C(=N)N)cc3[nH]2)cc1 [DAPI, 4′,6-Diamidine-2-phenylindole.2HCl]	none	14%	100%	72%	14%	5e+07 M⁻¹	% fluorescence decrease ([1]; non AT-rich hairpins (>150-512), 2 μM): < 20%; binding to GC-rich regions by intercalation relative to AT-rich minor groove binding (GC-rich regions): 100-1000 fold
CN1CCN(c2ccc3[nH]c(-c4ccc5[nH]c(-c6ccc(O)cc6)nc5c4)nc3c2)CC1 [Hoechst 33258]	no site containing a GC bp central to a 5 bp AT-rich site is found in the top 50 sequences	19%	100%	59%	–	7.2e+07 M⁻¹	GAAT among the top 50 sequences ([1]; 5 sequences): 10%; GATT among the top 50 sequences ([1]; 7 sequences): 14%; top 50 sequences that contain a three bp AT site flanked by a GC bp ([1]; 15 in the top 50): 30%; sequences 21-50 (next 30 after the top 20) that contain a three bp AT site flanked by a GC bp ([1]; 15 of the next 30 sequences): 50%; fluorescent decrease ([1]; hairpins >100-150): < 20%; binding constants by ethidium bromide displacement relative to direct titration ([2]; fold weaker than direct titration, four hairpins): ~2 fold
Cn1cc(NC(=O)c2cc(NC(=O)c3cc(NC=O)cn3C)cn2C)cc1C(=O)NCCC(=N)N [distamycin A]	–	27%	88%	47%	13%	1.7e+07 M⁻¹	hairpin sites with a GC bp central to a five bp AT-rich site found in the top 50 sequences ([1]; share of the 16 such hairpin sites): 44%; two bp AT sites found in the top 50 sequences ([1]; share of the 176 two bp AT sites, 512 hairpins): 6%; top 50 sequences that contain a GC bp central to a five bp AT-rich site ([1]; share of the top 50 sequences): 14%
Cn1cc(NC(=O)c2cc(NC(=O)CN=C(N)N)cn2C)cc1C(=O)NCCC(=N)N [netropsin]	no AT-rich sequence interrupted by a central GC bp appears in the top 50 sequences	9%	100%	84%	9%	3.47e+08 M⁻¹	rank (sequence no.) of ATTTA ([1]; 1.0 μM netropsin): 3; rank (sequence no.) of ATTTA ([1]; 2.0 μM netropsin): 1; ethidium bromide displaced at saturation binding ([2]; hairpin containing 5′-AAAAA): essentially all the ethidium bromide; mean position of the 2 bp AT sites [3]: 67.7; mean position of the 3 bp AT sites [3]: 41.6; mean rank of the ten available 4 bp AT sites [3]: 7.3
CC(=O)NCC(=O)O.CC(=O)NCC(=O)O.N=C(N)c1ccc(N=NNc2ccc(C(=N)N)cc2)cc1 [berenil]	–	15%	100%	66%	15%	6.4e+06 M⁻¹	–
CN1C(=Cc2cc[n+](C)c3ccccc23)Sc2ccccc21 [thiazole orange]	–	–	–	–	–	–	difference in binding constants between hairpins [4]: 1.3 fold; difference in binding constant between polynucleotides (polynucleotides): no difference

From US20030165837A1, “Method for screening DNA binding” (The Scripps Research Institute, priority 2000, published 2003)
